What was measured:
[1] = tested on: Trypanosoma cruzi; experiment: Percent inhibition of growth against Trypanosoma cruzi epimastigotes, Y strain at concentration 4 ug/ml (13-17 uM); assay type: functional; settings: read-out: GI
[2] = tested on: Trypanosoma cruzi; experiment: In vitro antitrypanosomal activity against Trypanosoma cruzi epimastigote, CL strain; assay type: functional, organism-based
[3] = tested on: Trypanosoma cruzi; experiment: In vitro for antitrypanosomal activity against Trypanosoma cruzi epimastigote, SC-28 strain; assay type: functional, organism-based
[4] = tested on: Trypanosoma cruzi; experiment: In vitro for antitrypanosomal activity against Trypanosoma cruzi epimastigote, Ystrain; assay type: functional, organism-based

Row | SMILES | inhibition of growth at 4 µg/mL [1] | IC50 [2] | IC50 [3] | IC50 [4]
1 | COc1ccc2c(c1)C(=O)c1cc(C(C)O)oc1C2=O (configuration not stated) | 100% | 2.65 µM | 3.05 µM | 2.82 µM
2 | COc1ccc2c(c1OC)C(=O)c1occc1C2=O | 25% |  |  | 
3 | COc1ccc2c(c1)C(=O)c1oc(C(C)=O)cc1C2=O | 100% | 0.53 µM | 0.57 µM | 0.49 µM
4 | COc1ccc(C(=O)O)c(Cc2ccco2)c1 | 0% |  |  | 
5 | COc1ccc2c(OC(C)=O)c3cc(C(C)=O)oc3cc2c1 | 100% | 1.86 µM | 2.17 µM | 1.92 µM
6 | COc1ccc2c(c1OC)C(=O)c1oc(C(C)O)cc1C2=O (configuration not stated) | 22% |  |  | 
7 | COc1ccc2c(c1)C(c1ccc(C(C)=O)o1)OC2=O (configuration not stated) | 17% |  |  | 
8 | COc1ccc2c(c1)C(c1ccco1)OC2=O (configuration not stated) | 18% |  |  | 
9 | O=C1C(=O)c2ccoc2-c2ccccc21 | 100% | 2.55 µM | 2.8 µM | 3.02 µM
10 | COc1ccc2c(c1OC)C(=O)c1ccoc1C2=O | 45% |  |  | 
11 | COc1ccc2c(c1OC)C(=O)c1oc(C(C)=O)cc1C2=O | 45% |  |  | 
12 | COc1cccc2c1C(c1ccco1)OC2=O (configuration not stated) | 19% |  |  | 
13 | O=C(Cn1ccnc1[N+](=O)[O-])NCc1ccccc1 [BENZNIDAZOLE] | 100% | 8.95 µM | 8.97 µM | 8.05 µM
14 | CC1CS(=O)(=O)CCN1/N=C/c1ccc([N+](=O)[O-])o1 (configuration not stated) [NIFURTIMOX] | 100% | 3.81 µM | 3.55 µM | 3.29 µM

From ChEMBL document CHEMBL1128765, “Growth inhibitory effect of naphthofuran and naphthofuranquinone derivatives on Trypanosoma cruzi epimastigotes” (Bioorg Med Chem Lett, 1995)
